Data taken from patent US20230025377A1, “COMPOSITIONS AND METHODS FOR TREATING OR PREVENTING PRURITUS” (HLB THERAPEUTICS CO., LTD., priority 2020, published 2023).
“And” between values parts separate entries of the source, which are not always exact repeats. Identical values can stand only once. “Also recorded” adds a separate entry of the source.

Columns and labels:
Format in all cases: cell-based, human
[1] = system: HMC-1 cells; assay: Histamine release in PMACI-treated HMC-1 cells (ELISA); conditions: for Histamine release: mean ± S.E.
Experimental: (§1) Cell culture: Human Mast Cell Line (HMC-1) cells (ATCC, Manassas, Va., USA) were maintained in IMDM (Iscove's Modified Dulbecco's Media) medium (Thermo Fisher Scientific) containing 10% fetal bovine serum (FBS; Hyclone, GE Healthcare Life Sciences) and 1% penicillin-streptomycin (Sigma-Aldrich, St. Louis, Mo., USA) in a 37° C. humidified incubator with 5% CO2. The medium was changed every 2-3 days.
(§2) HMC-1 cell treatment: HMC-1 cells were seeded in 12-well plates at a density of 7×10^5 cells per well and exposed to Tβ4 (1, 1.5, 3, and 6 μg/mL) for 1 hour before treatment with phorbol 12-myristate 13-acetate plus A23187 (PMACI; 30 nM of PMA plus 1.5 μM of A23187) to induce degranulation (activation) of mast cells and incubated at 37° C. After 2.5 hours, the medium was centrifuged (Hanil, UNION 32R PLUS) for 20 minutes at 1000×g. The supernate was transferred to another tube.
Allergic reaction factors: Histamine (HIS), Leukotrien B4 (LTB4), and Prostaglandin E2 (PGE2) amounts were evaluated to determine the effects of the disclosed composition on the release of allergic reaction factors. Histamine levels were measured using the HIS (Histamine) ELISA kit (Elabscience, Huston, Tex., USA) on the supernate of the culture medium. 50 μL of the sample was added to 96-plate wells, then 50 μL of Biotinylated Detection Ab working solution was added and incubated at 37° C. for 45 minutes. 100 μL of HRP Conjugate working solution was added and incubated at 37° C. for 30 minutes. 90 μL of Substrate reagent was added and incubated at 37° C. for 15 minutes. Washing was performed between each step. 50 μL of stop solution was added without washing. Absorbance was measured at 450 nm with a spectrophotometer (Biotek, PowerWave XS2, Winooski, Vt., USA).

[2] = system: HMC-1 cells; assay: Leukotrien B4 (LTB4) release in PMACI-treated HMC-1 cells (ELISA); conditions: for Leukotrien B4 release: mean ± S.E.
Experimental: as §1, §2
The leukotriene B4 amount was measured using the LTB4 (Leukotriene B4) ELISA kit (MybioSource, San Diego, Calif., USA) on the supernate of the culture medium. 50 μL of the sample was added to 96-plate wells, then 50 μL of Biotinylated Detection Ab working solution was added and incubated at 37° C. for 45 minutes. 100 μL of HRP Conjugate working solution was added and incubated at 37° C. for 30 minutes. 90 μL of Substrate reagent was added and incubated at 37° C. for 15 minutes. Washing was performed between each step. 50 μL of stop solution was added without washing. Absorbance was measured at 450 nm with a spectrophotometer (Biotek, PowerWave XS2, Winooski, Vt., USA).

[3] = system: HMC-1 cells; assay: Prostaglandin E2 (PGE2) release in PMACI-treated HMC-1 cells (ELISA); conditions: for PGE2 release: mean ± S.E.
Experimental: as §1, §2
The prostaglandin E2 (PGE2) amount was measured using a human PGE2 ELISA kit (Abeam, Cambridge, Mass.) on the supernate of the culture medium. 100 μL of the sample was added to 96-plate wells, then 50 μL of PGE2 Alkaline Phosphatase Conjugate was added. 50 ul of PGE2 Antibody was added and incubated on a shaker at room temperature for 45 minutes. 200 μL of pNPP substrate solution was added and incubated at 37° C. for 30 minutes. 90 μL of Substrate reagent was added and incubated at room temperature for 45 minutes. Washing was performed between each step. 50 μL of stop solution was added without washing. Absorbance was measured at 405 nm with a spectrophotometer (Biotek, PowerWave XS2, Winooski, Vt., USA).

[4] = system: HMC-1 cells; assay: IL-4 release in PMACI-treated HMC-1 cells (ELISA); conditions: for IL-4 release: mean ± S.E.
Experimental: as §1, §2
(§3) Inflammatory cytokines: IL-4, IL-13, and TNF-α amounts were evaluated to determine the effects of the disclosed composition on the release of inflammatory cytokines. IL-4 and IL-13 amounts were measured using Human IL-4 (ab100570) and IL-13 (ab100553) ELISA kit (Abeam, Cambridge, Mass.) on the supernate of the culture medium. 100 μL of the sample was added to 96-plate wells, then 100 μL of Biotinylated IL-4 and IL-13 detection antibody were added and incubated at room temperature for 1 hour. 100 μL of HRP-streptavidin solution was added and incubated at room temperature for 45 minutes. 100 μL of TMB one step substrate reagent was added and incubated at room temperature for 30 minutes. Washing was performed between each step and incubated on a shaker. Finally, 50 μL of stop solution was added without washing. Absorbance was measured at 450 nm with a spectrophotometer (Biotek, PowerWave XS2, Winooski, Vt., USA).

[5] = system: HMC-1 cells; assay: IL-13 release in PMACI-treated HMC-1 cells (ELISA); conditions: for IL-13 release: PMACI-treated HMC-1 cells, mean ± S.E.
Experimental: as §1, §2, §3

[6] = system: HMC-1 cells; assay: TNF-α release in PMACI-treated HMC-1 cells (ELISA); conditions: for TNF-α release: PMACI-treated HMC-1 cells, mean ± S.E.
Experimental: as §1, §2
The TNF-α amount was measured using a human TNF-alpha ELISA kit (Abeam, Cambridge, Mass.) on the supernate of the culture medium. 100 μL of the sample was added to 96-plate wells, then 50 μL of Biotinylated TNF alpha detection antibody was added and incubated at room temperature for 3 hours. 100 μL of HRP-streptavidin solution was added and incubated at room temperature for 30 minutes. 100 μL of Chromogen TMB substrate solution was added and incubated at room temperature of the light-shielding state for 20 minutes. Washing was performed between each step and incubated on a shaker. 50 μL of stop solution was added without washing. Absorbance was measured at 450 nm with a spectrophotometer (Biotek, PowerWave XS2, Winooski, Vt., USA).

[7] = Tβ4 1 μg/ml, PMACI-treated HMC-1 cells
[8] = Tβ4 1.5 μg/ml, PMACI-treated HMC-1 cells
[9] = Tβ4 3 μg/ml, PMACI-treated HMC-1 cells
[10] = Tβ4 6 μg/ml, PMACI-treated HMC-1 cells

Substance: thymosin beta 4 (SDKPDMAEIEKFDKSKLKKTETQEKNPLPSKETIEQEKQAGES; Thymosin beta-4; UniProt P62328 2-44, looked up) [Tβ4, human protein; polypeptide composed of 43 amino acids having 4.9 kDa]
- Tβ4 concentration with inhibitory effect on histamine release ([1]; PMACI-treated HMC-1 cells): above 1 μg/ml
- Tβ4 concentration with the best effect of suppressing the increase of HIS release ([1]; PMACI-treated HMC-1 cells): 3 µg/mL
- Histamine release [1, 7]: 25.96 ± 0.78 pg/mL
- Histamine release [1, 8]: 23.91 ± 0.36 pg/mL
- Histamine release [1, 9]: 22.00 ± 1.10 pg/mL
- Histamine release [1, 10]: 23.46 ± 0.55 pg/mL
- Amount of HIS released compared to PMACI alone ([1]; Tβ4 1, 1.5, 3, 6 μg/ml (1-6 μg/ml), p<0.01): significant inhibitory effect; also recorded: significantly decreased
- Amount of HIS released compared to PMACI alone ([1]; Tβ4 less than 1 μg/ml): no significant difference
- Tβ4 concentration most effective in inhibiting the increase of LTB4 release ([2]; PMACI-treated HMC-1 cells): 1.5 µg/mL and 3 µg/mL
- Tβ4 concentration with inhibitory effect on LTB4 release ([2]; PMACI-treated HMC-1 cells): above 1.5 μg/ml
- Leukotrien B4 release [2, 8]: 29.94 ± 1.97 pg/mL
- Leukotrien B4 release [2, 9]: 28.91 ± 2.10 pg/mL
- Leukotrien B4 release [2, 10]: 32.06 ± 2.44 pg/mL
- Release level of LTB4 compared with PMACI treatment alone ([2]; Tβ4 1-6 μg/ml): significantly decreased
- Amount of LTB4 released compared to PMACI alone ([2]; Tβ4 1.5 and 3 μg/ml, p<0.05): significant inhibitory effect
- Tβ4 concentration most effective in inhibiting the increase of PGE2 release ([3]; PMACI-treated HMC-1 cells): 3 µg/mL
- Tβ4 concentration with inhibitory effect on PGE2 release ([3]; PMACI-treated HMC-1 cells): above 3 μg/ml
- PGE2 release [3, 8]: 97.43 ± 2.56 pg/mL
- PGE2 release [3, 9]: 94.96 ± 0.87 pg/mL
- Amount of PGE2 released compared to PMACI alone ([3]; Tβ4 3 μg/ml, p<0.05): significant inhibitory effect
- PGE2 release [3, 10]: 106.00 ± 3.13 pg/mL
- Release level of PGE2 compared with PMACI treatment alone ([3]; Tβ4 1-6 μg/ml): significantly decreased
- Tβ4 concentration with inhibitory effect on IL-4 release ([4]; PMACI-treated HMC-1 cells): above 1.5 μg/ml
- IL-4 release [4, 7]: 88.27 ± 10.18 pg/mL
- IL-4 release [4, 8]: 79.77 ± 4.27 pg/mL
- IL-4 release [4, 9]: 65.43 ± 7.20 pg/mL
- IL-4 release [4, 10]: 64.01 ± 3.02 pg/mL
- Release level of IL-4 compared with PMACI treatment alone ([4]; Tβ4 1-6 μg/ml): significantly decreased
- Amount of IL-4 released compared to PMACI alone ([4]; Tβ4 1.5, 3, and 6 μg/ml, p<0.05): significant inhibitory effect
- IL-13 release ([5]; Tβ4 1 μg/ml): 30.07 ± 2.33 pg/mL
- IL-13 release ([5]; Tβ4 1.5 μg/ml): 28.52 ± 2.83 pg/mL
- IL-13 release ([5]; Tβ4 3 μg/ml): 28.22 ± 2.33 pg/mL
- IL-13 release ([5]; Tβ4 6 μg/ml): 26.98 ± 2.45 pg/mL
- Amount of IL-13 released compared to PMACI alone ([5]; Tβ4 1, 1.5, 3, and 6 μg/ml (1-6 μg/ml), p<0.05): significant inhibitory effect; also recorded: significantly decreased
- TNF-α release ([6]; Tβ4 1 μg/ml): 513.77 ± 17.85 pg/mL
- TNF-α release ([6]; Tβ4 1.5 μg/ml): 380.23 ± 7.97 pg/mL
- Reduction of TNF-α release compared to PMACI alone ([6]; Tβ4 3 μg/ml): reduced 37.4%
- TNF-α release ([6]; Tβ4 3 μg/ml): 379.42 ± 8.03 pg/mL
- Reduction of TNF-α release compared to PMACI alone ([6]; Tβ4 6 μg/ml): 37.1%
- TNF-α release ([6]; Tβ4 6 μg/ml): 381.46 ± 12.75 pg/mL
- Amount of TNF-α released compared to PMACI alone ([6]; Tβ4 1, 1.5, 3, and 6 μg/ml (1-6 μg/ml), p<0.01): significant inhibitory effect; also recorded: significantly decreased
